Data set [1] has as its system T1, p27 ubiquitination (E1, E2, E3 SCF^Skp2, Cks1).
T1 construct: His; Strep tag (cleaved yes); GST; made in house; host or cells: Sf9 (His-E1; p27/Cdk2/cyclin E); E. coli (His-UbcH3, Cks1); baculovirus-infected insect cells (SCF-Skp2)
Nature of the data set: p27 ubiquitination assay, plate capture format (DMSO tolerance). It counts as biochemical, Human. From the text:
This assay measures the ubiquitination of cell cycle inhibitor p27 in a high-throughput-capable in vitro reconstituted system that mimics the ubiquitination of p27 in vivo. Ubiquitinated p27 is captured using an anti-p27 antibody-coated plate and detected by Europium (Eu)-labeled streptavidin that binds biotinylated ubiquitin. The assay as described below incorporates the addition of a test compound to the ubiquitination reaction.
Assay mix A (see below) contained: 3× concentration ubiquitin buffer (120 mM Tris·HCl pH 7.5, 15 mM MgCl2), 3 mM dithiothreitol, 15 ng/μL E1, 450 ng/μLE2, 15 ng/μL E3, and 12 ng/μL pre-phosphorylated p27.
Starting solution (see below) contained 0.75 mg/mL biotinylated ubiquitin and 0.75 ng/μL Cks1 in assay dilution buffer (30 mM Tris·HCl pH7.5, 1 mM DTT, 19.5% glycerol). Starting solution for negative control contains 0.75 mg/mL biotinylated ubiquitin in assay dilution buffer (30 mM Tris·HCl pH7.5, 1 mM DTT, 19.5% glycerol).
The capture plates were coated as follows. […]
The ubiquitination reaction was run as follows: 5 μL of a test compound in 6% dimethylsulfoxide (DMSO) was added to each well of a V-bottom plate. […] 25 μL enhancement solution was added per well, and the plates were read to determine the amount of time-resolved fluorescence emission at 615 nm for Europium chelate. […]

Data set [2] deals with p27 ubiquitination (E1, E2, E3 SCF^Skp2, Cks1). To be noted: reaction includes 5 mM MgCl2.
Text: A homogenous, time-resolved fluorescence resonance energy transfer (HTR-FRET) assay was developed for high throughput screening of compounds that block p27 ubiquitination in vitro. In this assay, p27 is modified with a mixture of ubiquitin (Ub) and biotinylated ubiquitin (Bio-Ub) in the presence of E1, E2, E3 and Cks1 (FIG. 11). A rabbit anti-phospho-p27 antibody and Lance Eu labeled Protein G (Eu-PRG) were used as a donor and Cy5-labeled streptavidin (Cy5-SA or Dylite-SA) is used as an acceptor. Ubiquitinated p27 is detected by FRET signal generated between Eu and Cy5.
In this format, Bio-Ub is used as a tracer to label ubiquitinated p27. Lance Eu-labeled Protein G (Eu-PRG) coupled to anti-phospho-p27 is used as the FRET donor, and SA-Cy5 is used as the FRET acceptor. The FRET signal is measured as the ratio of fluorescence emission of Cy5 at 665 nm over that of Eu at 620 nm after excitation of Eu at 340 nm.
Next, stopping conditions for the p27 ubiquitination were determined.
Assay Procedures: • 1) Prepare Starting solutions and incubate at room temperature for 20˜30 min Start+Cks1: 12 μM Ub, 3 μM Bio-Ub, and 1.875 ng/μl (187.5 nM) Cks1 in assay dilution buffer. Start−Cks1: 12 μM Ub and 3 μM Bio-Ub in assay dilution buffer. • 2) Prepare Assay mix A as indicated in Table 3 • 3) Set up reaction: In an assay plate, add 5 μl/well of Assay mix A, compound in 6% DMSO and 0.03% Brij35 (30 μg/ml; final concentration at 10 μg/ml), and Starting solutions. The total assay volume is 15 μl. Incubate at room temperature (˜23° C.-25° C.) for 1 hour. • 4) Stop the reaction with the addition of 15 μl/well of Stopping solution (40 mM EDTA, 0.1% Tween 20, 250 nM Cy5, 2 nM Eu-PRG, and 8 nM anti-phospho-p27 in PBS)
The target in another data set is T2, E1 (Homo sapiens, UniProt P22314).
T2 sequence (P22314 1-1058): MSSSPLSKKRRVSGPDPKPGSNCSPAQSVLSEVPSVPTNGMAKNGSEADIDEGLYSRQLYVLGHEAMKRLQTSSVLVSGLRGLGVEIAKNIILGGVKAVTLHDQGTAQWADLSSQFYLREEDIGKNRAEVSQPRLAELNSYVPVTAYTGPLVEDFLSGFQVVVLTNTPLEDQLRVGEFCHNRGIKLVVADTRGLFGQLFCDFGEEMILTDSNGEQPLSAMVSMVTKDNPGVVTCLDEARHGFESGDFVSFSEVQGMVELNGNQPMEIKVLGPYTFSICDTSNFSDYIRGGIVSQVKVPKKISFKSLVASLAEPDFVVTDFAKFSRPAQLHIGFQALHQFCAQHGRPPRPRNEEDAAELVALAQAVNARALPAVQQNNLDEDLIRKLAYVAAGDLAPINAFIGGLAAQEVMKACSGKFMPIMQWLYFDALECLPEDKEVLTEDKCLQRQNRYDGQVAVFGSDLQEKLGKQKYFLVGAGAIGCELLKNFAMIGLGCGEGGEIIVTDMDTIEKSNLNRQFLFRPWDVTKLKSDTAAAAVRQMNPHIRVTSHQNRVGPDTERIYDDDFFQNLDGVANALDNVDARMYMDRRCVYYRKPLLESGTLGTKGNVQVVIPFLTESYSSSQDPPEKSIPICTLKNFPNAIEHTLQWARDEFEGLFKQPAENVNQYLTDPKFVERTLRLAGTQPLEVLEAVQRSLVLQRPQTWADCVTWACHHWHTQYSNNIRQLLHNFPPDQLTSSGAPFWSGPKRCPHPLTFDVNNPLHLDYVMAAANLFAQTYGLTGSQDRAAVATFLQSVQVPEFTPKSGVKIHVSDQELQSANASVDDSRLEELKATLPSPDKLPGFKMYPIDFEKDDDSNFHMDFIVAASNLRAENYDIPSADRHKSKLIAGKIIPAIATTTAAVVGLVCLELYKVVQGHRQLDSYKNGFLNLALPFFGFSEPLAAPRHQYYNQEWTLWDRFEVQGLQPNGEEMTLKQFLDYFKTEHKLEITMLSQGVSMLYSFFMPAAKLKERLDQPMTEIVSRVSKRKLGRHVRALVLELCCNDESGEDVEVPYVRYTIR
Nature of the data set: apparent Km of ubiquitin for E1. To be noted: read-out: apparent Km of Ub for E1. In kind it is biochemical. Here is the method:
In an HTR-FRET assay, the background FRET increases as the concentrations of Eu and Cy5 increase. In general, to achieve a low background signal, Eu concentrations should be in the low nM range while Cy5 concentrations can be up to 100-200 nM. To determine the optimal concentration of Bio-Ub used in the p27 Ub assay, 80 nM of p27 was ubiquitinated with 0-4 μM of Bio-Ub and diluted 1:4 with a detection mixture containing a final concentration of 5 nM Eu-PRG, 10 nM anti-p27, and 25-125 nM SA-Cy5. 1 uM of Bio-Ub with 125 nM of Cy5-SA gave the best signal-to-background (S/B) ratio (FIG. 12). […] Since the apparent Km of Ub for E1 is about 2 μM, 4 μM of unlabeled ubiquitin was used in the reaction (2×apparent Km). Ubiquitination of p27 in the presence of 4 μM Ub and 1 μM Bio-Ub was very similar to that of p27 in the presence of saturating concentrations of Bio-Ub (28 μM) (FIG. 13).

Where two headings read alike, the source gives them in different places.

Turning to `C[S+](C)[O-]` [DMSO, dimethylsulfoxide], the “p27 ubiquitination activity remained” value in data set [1] (2% DMSO, titration between 0 and 10% DMSO) was “approximately 60%”. The p27 ubiquitination result in data set [1] (above 15% (v/v) of DMSO, initial titration) is on record as “nearly completely lost”.
As for `O=C(O)CN(CCN(CC(=O)O)CC(=O)O)CC(=O)O` [EDTA], in data set [2] (5 mM EDTA alone), the “effect on p27 ubiquitination” value is listed as “no effect”. For the same compound, the p27 ubiquitination result in data set [2] (10 mM EDTA) was “only partially inhibited”. Further, in data set [2] (20 mM EDTA, data not shown), the “Ubiquitination of p27” value was “completely inhibited”.
As to ubiquitin, the Michaelis-Menten constant (Km) with E1 was about 2 µM.

The term Km denotes the substrate concentration at which the rate is half of its maximum.

(Values after patent publication US20060194262A1, “P27 ubiquitination assay and methods of use” (priority 2004, published 2006).)
